Laboratory results taken from US5846720A, “Methods of determining chemicals that modulate expression of genes associated with cardiovascular disease” (Oncogene Science, Inc., priority 1996, dated 1998).

Experiments:
[1] = test system: G-CSF promoter; assay: G-CSF promoter/luciferase reporter assay (high-throughput screen I), G21 cells; details: Table 2, 6 h incubation; for GCSF fold induction relative to solvent control: transcriptional activators; for GCSF fold inhibition relative to solvent control: transcriptional inhibitors
[2] = test system: hGH promoter; assay: hGH promoter/luciferase reporter assay (high-throughput screen I), 532 cells; type: cell-based, rat; details: Table 2, 6 h incubation; for hGH fold induction relative to solvent control: transcriptional activators; for hGH fold inhibition relative to solvent control: transcriptional inhibitors
Source text: 6. a GC rat pituitary cell line, transfected with the growth hormone reporter plasmid, designated 532, deposited under ATCC Accession No. CRL 10663.

[3] = test system: MMTV promoter; assay: MMTV promoter/luciferase reporter assay (high-throughput screen I, control for specificity), M10 cells; type: cell-based, mouse; details: Table 2, 6 h incubation; for MMTV fold induction relative to solvent control: transcriptional activators, original high-throughput assay; for MMTV fold inhibition relative to solvent control: transcriptional inhibitors
Method: pMluci and pSV2Neo, an antibiotic resistance plasmid (84), were co-transfected into NIH/3T3 mouse fibroblast cells using the calcium phosphate precipitation method (85) with a commercially available kit (Pharmacia, Piscataway N.J.). Two days later, cells were transferred to media containing 0.4 mg/ml G418 and were grown for an additional 10-14 days. G418-resistant clones were isolated by standard methods. Once sufficient cell numbers were obtained, clones were analyzed based on several criteria: constitutive luciferase production, induction of luciferase expression by dexamethasone ([…], Sigma, St. Louis, Mo.), satisfactory attachment to microtiter plates used in the high-throughput screen (see section G) and acceptable standard deviation in multiple luciferase expression assays (see below for assay protocol). This analysis was carried out using the luciferase assay conditions described above. Of the clones which satisfied the above criteria for the high throughput screen, one clone, M10, was selected for use.

Structure (SMILES)	GCSF fold induction relative to solvent control [1] [fold]	hGH fold induction relative to solvent control [2] [fold]	MMTV fold induction relative to solvent control [3] [fold]	GCSF fold inhibition relative to solvent control [1] [fold]	hGH fold inhibition relative to solvent control [2] [fold]	MMTV fold inhibition relative to solvent control [3] [fold]
O=C1OC2(c3cc(I)c(O)c(I)c3Oc3c2cc(I)c(O)c3I)c2c(Cl)c(Cl)c(Cl)c(Cl)c21 [Chemical 792]	0.94	5.31	1.21	–	–	–
Cc1ccc(P(CCP(c2ccc(C)cc2)c2ccc(C)cc2)c2ccc(C)cc2)cc1 [Chemical 1591]	–	–	–	0.56	5.55	0.96
COc1cc2oc(=O)cc(CBr)c2cc1OC [Chemical 2064]	0.82	1.10	2.53	–	–	–
Cc1c(C(=O)O)c(O)cc2c1C(=O)c1c(O)c([C@@H]3O[C@H](CO)[C@@H](O)[C@H](O)[C@H]3O)c(O)c(O)c1C2=O [Chemical 240]	–	–	–	0.63	5.26	0.80
O=C(c1ccc(O)c(O)c1)c1c(O)cc(O)cc1O [Chemical 660]	–	–	–	10.0	0.34	1.04
O=C(Nc1cccc(C2=NCCN2)c1)Nc1cccc(C2=NCCN2)c1 [Chemical 1598]	0.72	5.32	1.27	–	–	–
Nc1c(Cl)c(Cl)nc(C(=O)O)c1Cl [Chemical 1561]	0.23	8.05	0.48	–	–	–
Nc1ccc(S(=O)(=O)O)c2cccc(O)c12 [Chemical 1337]	0.07	15.87	0.23	–	–	–
c1ccc(-c2nccnc2-c2ccccn2)nc1 [Chemical 1641]	–	–	–	0.83	5.55	0.60
Nc1nccs1 [Chemical 1550]	0.04	5.44	0.87	–	–	–
Cc1n[nH]c(C)c1Br [Chemical 2009]	–	–	–	3.70	0.57	0.64
NC1=NCCS1 [Chemical 1552]	1.23	7.26	0.52	–	–	–
CN(C)C(=S)SCC#N [Chemical 1793]	9.50	0.52	1.21	–	–	–
N=c1cc2oc3cc(N)ccc3nc-2c2ccccc12 [Chemical 1776]	3.50	0.15	1.36	–	–	–
ClCc1ccc(Cl)cc1 [Chemical 2129]	3.23	0.75	0.95	–	–	–
O=S(=O)(O)c1ccc(-c2ccnc(-c3nnc(-c4ccc(S(=O)(=O)O)cc4)c(-c4ccc(S(=O)(=O)O)cc4)n3)c2)cc1 [Chemical 1648]	–	–	–	0.86	7.69	1.00
CON(C)C(=O)Nc1ccc(Cl)cc1 [Chemical 552]	0.81	5.31	0.86	–	–	–

Structure (SMILES)	GCSF fold induction relative to solvent control [1] [fold]	hGH fold induction relative to solvent control [2] [fold]	MMTV fold induction relative to solvent control [3] [fold]	GCSF fold inhibition relative to solvent control [1] [fold]	hGH fold inhibition relative to solvent control [2] [fold]	MMTV fold inhibition relative to solvent control [3] [fold]
Nc1nc2nc[nH]c2c(=S)[nH]1 [Chemical 1521]	3.59	0.73	0.92	–	–	–
O=c1[nH]c(=O)c2nc3ccccc3nc2[nH]1 [Chemical 1890]	–	–	–	0.80	5.26	0.58
O=C(c1ccccc1)c1ccc(Br)cc1 [Chemical 1705]	–	–	–	0.54	14.28	0.62
N#Cc1ccc(Br)cc1 [Chemical 1704]	–	–	–	0.77	4.16	0.94
CC1(C)[C@@H](C(=O)OCC(F)(F)C(F)(F)C(F)(F)C(F)(F)C(F)(F)C(F)F)CC[C@@]1(C)C(=O)OCC(F)(F)C(F)(F)C(F)(F)C(F)(F)C(F)(F)C(F)F [Chemical 1592]	3.20	0.74	1.34	–	–	–
O=C(O)c1cc(C(F)(F)F)ccc1C(F)(F)F [Chemical 1655]	–	–	–	0.54	4.76	0.81
N[C@@H](CCCCNC(=O)OCc1ccccc1)C(=O)O [Chemical 1747]	0.78	6.16	0.86	–	–	–
Nc1nc(N)nc(N)n1 [Chemical 364]	3.67	1.18	1.07	–	–	–
CC(=O)N(C)c1ccc(N)cc1 [Chemical #1374, 4'-Amino-N-methyl-acetanilide]	11.03	0.05	1.05	–	–	–
O=c1ccc2[n+]([O-])c3ccc(O)cc3oc-2c1 [Chemical 427]	3.14	0.43	0.71	–	–	–
Brc1ccc2c3c(cccc13)CC2 [Chemical 1573]	1.49	0.34	4.30	–	–	–
N#Cc1cccc(Br)c1 [Chemical 1703]	–	–	–	0.76	10.00	0.90
Nc1c2ccccc2nc2ccccc12 [Chemical 1904]	4.12	0.54	0.82	–	–	–
Nc1nc(-c2ccccc2)cs1 [Chemical 1499]	0.24	5.55	0.61	–	–	–
Nc1ccc(C=CC(=O)O)cc1 [Chemical 1234]	4.97	0.51	1.03	–	–	–
Cc1cc(=O)oc2c(CN(CC(=O)O)CC(=O)O)c(O)ccc12 [Chemical 1712]	–	–	–	0.74	8.33	0.94
